Source: patent publication US20240226227A9, “BONE DISEASE TREATMENT” (The University of Birmingham, priority 2019, published 2024)

Assays:
[1] = test system: primary human osteoblasts; test: Alkaline phosphatase activity (mineralization), primary human osteoblasts; format: cell-based; conditions: 10 ng/ml PEPITEM, vs untreated cells, paired t-test
Description: Human osteoarthritis subchondral joint tissue was obtained at the time of total knee and hip joint replacement operations from the Royal Orthopaedic Hospital (Birmingham). To isolate primary osteoblasts, cartilage was removed from the femoral condyles and tibial plateaus and cut into 2 mm^2 pieces. Samples were kept in media and cleaned of fat. Media contains DMEM (Sigma™, D6546), FCS (10%), GPS (1%), Non-essential amino acid (1%; Sigma™, M7145), β-glycerophosphate (2 mM; Sigma™—G9422) and L-Ascorbic acid (50 μg/ml; Sigma™, A5960). Bone chips were placed in T75 flasks in 10 ml of media, replacing media every 2-3 days. Main outgrowth occurs between 10-14 days, after which chips were placed in new flasks. […]
(§1) Osteoblasts were cultured in mineralization differentiation media in the presence or absence of PEPITEM (10 ng/ml) over a 21-day period, dependent on cell source. Mineralization was assessed by quantifying the amount of alizarin red (nM) or the level of alkaline phosphate activity (absorbance at 405 nm) per condition.
To measure alkaline phosphatase activity, cells were washed in PBS before being lysed in 100 μl of RIPA buffer (Thermo Fisher™, R0278) for 15 minutes on ice. […] The plate was wrapped in foil and left to run for 45 minutes at 37° C. in an incubated shaker (SciQuip™; Shropshire, UK) before being quantified using a Synergy HT plate reader (BioTek™) with absorbance set at 405 nm.

[2] = test system: primary murine osteoblast cells; test: Alizarin red mineralization assay, primary murine osteoblasts; format: cell-based, mouse; conditions: 10 ng/ml PEPITEM, vs untreated cells, paired t-test
Description: Day 3-5 WT mouse pups were culled via decapitation and heads were washed briefly in 70% ethanol and kept hydrated in αMEM media supplemented with 2 mM L-Glutamine, 100 U/ml Penicillin and 100 μg/ml Streptomycin. Skin was removed from around calvaria using forceps, and the calvaria was dissected out and cleaned of any contaminating tissue. Calvaria were added to αMEM media supplemented with 1 mg/ml of collagenase d (Roche™, Basel, Switzerland, COLLD-RO). Tubes were then agitated at 37° C. for 10 minutes and the media discarded. αMEM media supplemented with 1 mg/ml of collagenase d was again added to calvaria and shaken at 37° C. for 30 minutes. […] Cells on ice were then spun down at 300 g for 4 minutes, resuspended in 1 ml of Basal media and counted using a haemocytometer. […]
as §1
(§2) Alizarin red analysis was performed following the manufacturer's instructions (Caltag+Medsystems™, Buckingham, UK, SC8678). […] Alizarin red was quantified using ImageJ™ (NIH) by removing backing, converting to a binary image and measuring area fraction stained. […]

[3] = test system: long bones of wild-type mice; test: Bone homeostasis in young healthy mice, microCT of long bones; format: in vivo, mouse; conditions: daily i.p. 300 μg for 14 days, vs PBS
Description: (§3) All experiments were performed in accordance with UK Home Office regulations. For the animal studies, in each experiment wild-type (WT) animals were allocated at random to different experimental groups. Importantly, mice from the same litter were randomly distributed amongst the experimental groups, and where possible, they were equally distributed amongst experimental groups. Injections of peptide were carried out at the same time of day, with identical reagents when possible. The investigators were not blinded to allocation during experiments and outcome assessment. All samples analyzed were included in the study.
(§4) WT mice were housed in the Biomedical Services Unit at the University of Birmingham. Mice were used between 6 and 16 weeks of age. • 1. Homeostasis—Six-week-old male wild-type mice were treated with or without daily intraperitoneal (i.p.) injections of PEPITEM (300 μg) for 2 weeks. Mice were culled at 2 weeks to examine the effect of PEPITEM on bone homeostasis in young resting bones. • 2. Ovariectomy (model of age-related osteoporosis)—Twelve-week-old female wild-type mice were subjected to ovariectomy (OVX). Two weeks post-surgery, mice were treated with or without daily i.p. injections of PEPITEM (300 μg) for 2 weeks. Mice were culled at 2 weeks to obtain baseline bone loss measurements, or at 4 weeks to examine the effect of PEPITEM on OVX-induced bone loss. • 3. Analysis of murine bone parameters—Histomorphometry analysis was performed on long bones (femur; tibia) and/or spine to determine the effects of PEPITEM on the structural architecture of the tissue, cellular distribution and bone volume, including TRAP and Toluidine blue staining for osteoclasts and osteoblasts respectively. For information on these staining methods, see Das, P. et al., PNAS, 2018, 115(43), E10137-E10146 and Waddington, R. J. and Sloan, A. J. eds. Tissue Engineering and Regeneration in Dentistry: Current Strategies. West Sussex: John Wiley & Sons. Femurs were subjected to a 3-point bending test using a Bose 5500 (Bose) to determine the stiffness of the bones and the force required to fracture the bone. For more information on the 3-point bending test method, see Huesa, C. et al., Bone, 2011, 48(5), 1066-1074.

[4] = test system: vertebra of wild-type mice; test: Bone homeostasis in young healthy mice, microCT of vertebra; format: in vivo, mouse; conditions: daily i.p. 300 μg for 14 days, vs PBS
Description: as §3, §4

[5] = test system: long bones of wild-type mice; test: 3-point bending test of long bones ex vivo after treatment of mice; format: in vivo, mouse; conditions: daily injections for 14 days, vs PBS
Description: as §4

[6] = test system: murine osteoblast cell line MC3T3; test: Alizarin red mineralization assay, MC3T3 osteoblast cell line; format: cell-based, mouse; conditions: MC3T3 cells, 10 ng/ml PEPITEM in differentiation media, up to 21 days, vs untreated cells
Description: The spontaneously immortalised murine MC3T3-E1 cell line (ATCC, England, UK, CRL-2593) was brought up from liquid nitrogen and cultured in basal media made up of: αMEM media (Sigma-Aldrich™, St. Louis, MO, USA, M8042) supplemented with 2 mM L-Glutamine, 100 U/ml Penicillin and 100 μg/ml Streptomycin (all from Sigma-Aldrich™, G1146) and fetal bovine serum [(FBS) Biosera™, East Sussex, UK, FB1001]. […] Mineralisation was assessed using an Alizarin red staining quantification assay and ALP activity.
as §1, §2

[7] = test system: ovariectomized wild-type mice; test: Ovariectomy model of age-related osteoporosis, microCT of long bones; format: in vivo, mouse; conditions: OVX mice
Description: as §3, §4

[8] = test system: osteoclasts and chondroclasts in tibia of wild-type mice; test: TRAP staining of decalcified tibia sections, osteoclast and chondroclast counts; format: in vivo, mouse; conditions: daily injections for 14 days, vs PBS
Description: WT mice were housed in the Biomedical Services Unit at the University of Birmingham. Mice were used between 6 and 16 weeks of age. • 1. Homeostasis—Six-week-old male wild-type mice were treated with or without daily intraperitoneal (i.p.) injections of PEPITEM (300 μg) for 2 weeks. Mice were culled at 2 weeks to examine the effect of PEPITEM on bone homeostasis in young resting bones. • 2. Ovariectomy (model of age-related osteoporosis)—Twelve-week-old female wild-type mice were subjected to ovariectomy (OVX). Two weeks post-surgery, mice were treated with or without daily i.p. injections of PEPITEM (300 μg) for 2 weeks. Mice were culled at 2 weeks to obtain baseline bone loss measurements, or at 4 weeks to examine the effect of PEPITEM on OVX-induced bone loss. • 3. […]
For analysis of whole hind limb sections, Zen Blue software (ZEISS, Cambridge, UK) was used to break whole leg scans into regions of 20 μm by 20 μm, which were saved as images (JPEG) and opened on ImageJ™ (National institute of health (NIH); Maryland, USA). […] Osteoclasts were counted per region using ImageJ™ count maxima tool, where maxima were defined according to noise tolerance to neighboring squares and given as total number of osteoclasts per section. […]

[9] = long bones, daily i.p. 300 μg for 2 weeks from 2 weeks post surgery, vs untreated

PEPITEM (SVTEQGAELSNEER; listed as Homo sapiens)
osteoblast mineralization (alkaline phosphatase activity) [1]: significantly increased | osteoblast mineralization (Alizarin Red staining) [2]: significantly increased | bone volume to trabecular bone volume ratio (BV/TV) [3]: significantly increased | trabecular number [3]: significantly increased | trabecular separation [3]: decreased | trabecular thickness [3]: significantly increased | bone volume to trabecular bone volume ratio (BV/TV) [4]: significantly increased | trabecular number [4]: significantly increased | trabecular separation [4]: decreased | trabecular thickness [4]: significantly increased | bending force [5]: significantly increased | fracture force [5]: significantly increased | stiffness of the bone [5]: significantly increased | production of bone mineral (Alizarin Red staining) [6]: stimulates the production of bone mineral | additional bone loss after ovariectomy ([7]; 4 weeks post surgery, compared to 2-week untreated (baseline) mice): prevented additional bone loss | bone volume to trabecular bone volume ratio (BV/TV) [7, 9]: significantly increased | trabecular number [7, 9]: significantly increased | trabecular separation [7, 9]: decreased | trabecular thickness [7, 9]: significantly increased | number of chondroclasts per μm [8]: reduced | number of osteoclasts per mm^2 within the tibia [8]: significantly reduces
